Source: a melting point compilation (Tetko et al.; mined from patent text by program, amines drawn as free bases though some values may be those of a salt)

CCC(=O)Nc1c(C#N)cnn1-c1c(Cl)cc(Cl)c(Cl)c1Cl showed a melting point of 203 to 204 °C. For OCc1nccc2c1CCCC2, the melting point was 81 to 82 °C. COC(=O)c1ccc(COc2ccc(-c3cc(O)c(SCCc4ccccc4)c(=O)o3)cc2)cc1 gave a melting point of 157 to 158 °C. Work on O=C(Nc1ccc(CN2CCCCC2)cc1)C1=Cc2cc(-c3ccccc3)ccc2CC1 yielded a melting point of 163 to 164 °C. Molecule COc1ccc(Cn2nnnc2C(=O)Nc2cccc(N3CCCCC3)c2C#N)cc1 has a melting point of 166 to 168 °C. Molecule CC(C)=CCOc1c(I)cc(C(C)O)nc1Cl (centres undefined) has a melting point of 80 to 81 °C. CCCCc1cccn2c(=O)c(-c3nnn[nH]3)cnc12 gave a melting point of 256 to 258 °C. Work on CCOC(=O)[C@@H](CC(=O)c1ccc2ccccc2c1)NC(C)=O yielded a melting point of 94 to 95 °C. For CCCCC[C@@H](COc1ccc(C(=O)O)cc1)c1ccc2c(c1)C(C)(C)CCC2(C)C, the melting point was 74 to 76 °C. For Cc1nc(NC(=O)OCc2ccccc2)c2n1-c1ccc(Cl)cc1C(c1ccccc1F)=NC2, the melting point was 250 to 253 °C. CCOP(=O)(Cc1ccc(NC(=O)CCc2conc2-c2ccc(Cl)cc2)cc1)OCC gave a melting point of 88 to 90 °C. In the case of Cc1cc(O)n2nc(S(=O)(=O)Nc3c(Cl)ccc(C)c3Cl)nc2n1, the melting point was 346 to 347 °C. With N[C@@H]1CN2CCC1CC2 the melting point was 118 to 121 °C. O=C(NC(NCCc1ccccc1)C(Cl)(Cl)Cl)c1ccncc1 (centres undefined) gave a melting point of 115 to 117 °C. Work on COc1ccc(-c2nc(C(=O)OC(C)C)cc(Cl)c2Cl)cc1 yielded a melting point of 113 to 116 °C. For CCC[C@H](C)C(=O)O[C@H]1C[C@H](O)C=C2C=C[C@H](C)[C@H](CC[C@@H]3C[C@@H](O)CC(=O)O3)[C@H]21, the melting point was 134 °C. In the case of CCCn1c(=O)c2[nH]c(/C=C/c3cccc([N+](=O)[O-])c3)nc2n(CCC)c1=O, the melting point was 256 to 257 °C. For O=C(O)c1ccc(C(=O)N[C@@H](Cc2c[nH]c3ccccc23)C(=O)O)cc1, the melting point was 187 to 189 °C. O=C1[C@H]2CCC[C@H]2N(C(=O)CCn2ccnc2)c2ccccc2N1Cc1ccccc1 (relative stereo) gave a melting point of 150 to 152 °C. For COc1cc(COc2nn(-c3ccccc3)cc2C(N)=O)ccc1OCc1nc(-c2ccccc2)oc1C, the melting point was 190 to 191 °C. Work on CCN(CC)CCN1CCN(Cc2ccc(O)cc2)C(c2ccccc2)C1 (centres undefined) yielded a melting point of 108 to 112 °C. Molecule COc1ccc(SC(C(=O)NO)c2ccccc2)cc1 (centres undefined) has a melting point of 155 °C. O=C(Cc1c(F)cccc1C(=O)O)Nc1cccc(/C=C/c2nc(C3CCC3)cs2)c1 gave a melting point of 221 to 222 °C. CC(C)C1=NC2=NC(SCc3ccccc3)(SCc3ccccc3)NN2C=C1 showed a melting point of 65 to 66 °C. Work on Cc1nc2cc(C(c3cccc(Cl)c3)n3ccnc3)ccc2[nH]1 (centres undefined) yielded a melting point of 117 °C. With COC1(c2cccc(OCc3ccc(-n4ccnc4C)cc3)c2)CCOCC1 the melting point was 136 to 137 °C. COc1ccccc1Nc1cc(C(=O)Nc2ccccc2)ccc1OC gave a melting point of 155 to 156 °C. CC=CN(C=CC)c1ccc2[nH]c3cnc(C(=O)OCC)cc3c2c1 gave a melting point of 235 to 238 °C. Molecule Cn1cc(C=O)cc1C(=O)O has a melting point of 178 to 180 °C. NC(=O)c1ccccc1NC(=O)c1ccc(Cl)cc1 gave a melting point of 205 to 207 °C. With CCCCCCCCCCCCCCCCCCOc1cc(N)cc(NC(C)=O)c1 the melting point was 115 to 117 °C. CC(=O)c1ccc(N)c(C(=O)c2ccccc2)c1 showed a melting point of 158 to 161 °C. COc1ccc(C2=NN(CC=Cc3ccccc3)C(=O)C3CCCCC23)cc1OC (centres undefined) gave a melting point of 76 to 79 °C. Work on CCCCn1c(=O)c(C#N)c(N2CCN(C(=O)c3cccs3)CC2)c2cccnc21 yielded a melting point of 143 °C. For O=C(O)c1ccn(-c2ccc(C(=O)O)c(Cl)c2)n1, the melting point was 260 to 263 °C. Work on CC(Cn1ncnn1)n1nnc2cc3c(=O)n(Cc4cccnc4)nnc3cc2c1=O (centres undefined) yielded a melting point of 200 °C. For COc1cccc(OC)c1CN1CC2CCCN2c2ncccc21 (centres undefined), the melting point was 211 to 213 °C. For CCC(C)c1c(Cl)nc(NC=O)nc1Cl (centres undefined), the melting point was 92 to 93 °C. O=c1nc(-c2cccc(Sc3ncccn3)n2)sc2ccccc12 gave a melting point of 245 to 246 °C. Work on COCc1nc2cccc(C(=O)O)c2n1Cc1ccc(-c2ccccc2-c2nnn[nH]2)cc1 yielded a melting point of 272 to 274 °C. With Cc1ccc(C(=O)C2=C(O)C(=O)N(c3ncc(S(=O)(=O)N4CCOCC4)s3)C2c2ccc(C(C)C)cc2)cc1 (centres undefined) the melting point was 247 to 252 °C. CCOC(=O)c1ccc(-c2ccc(-c3ccccc3OC)c(-c3ccc4c(c3)C(C)(C)CCC4(C)C)c2)cc1 gave a melting point of 133 to 136 °C. In the case of O=C(Nc1ccc2ccc(Oc3ccccc3)nc2n1)c1cccs1, the melting point was 176 °C. In the case of Cn1cc(S(C)=O)c(=O)c2ccc(F)cc21 (centres undefined), the melting point was 226 to 228 °C. O=C1Cc2cccc(Oc3c(Cl)cccc3Cl)c2N1 showed a melting point greater than 230 °C. c1cnc(NCCc2c[nH]cn2)cn1 showed a melting point of 200 to 202 °C. Molecule COc1ccc(OC)c2c1CCC(Nc1ccc(O)cc1)C2 (centres undefined) has a melting point of 188 to 189 °C. Cc1cc2c(cc1F)c(C#N)c(-c1ccc(S(=O)(=O)N[C@H](C)C(F)(F)F)cn1)n2C1CCCC1 showed a melting point of 191 to 193 °C. O=[N+]([O-])c1ccccc1N1CCN(CC(O)COc2cccc3c2CCCC3)CC1 (centres undefined) showed a melting point of 186 to 187 °C.
